Source: ChEMBL document CHEMBL4219053, “Antiobesity and emetic effects of a short-length peptide YY analog and its PEGylated and alkylated derivatives” (Bioorg Med Chem, 2018)
pIC50: −log10 of the molar value.

Tests used:
[1] = molecular target: T1, Neuropeptide Y receptor type 2 (Homo sapiens, UniProt P49146); assay: Displacement of [125I]-PYY from human neuropeptide Y2 receptor expressed in CHO cell membranes incubated for 60 mins by TopCount micro scintillation analysis
T1 sequence (P49146 whole entry): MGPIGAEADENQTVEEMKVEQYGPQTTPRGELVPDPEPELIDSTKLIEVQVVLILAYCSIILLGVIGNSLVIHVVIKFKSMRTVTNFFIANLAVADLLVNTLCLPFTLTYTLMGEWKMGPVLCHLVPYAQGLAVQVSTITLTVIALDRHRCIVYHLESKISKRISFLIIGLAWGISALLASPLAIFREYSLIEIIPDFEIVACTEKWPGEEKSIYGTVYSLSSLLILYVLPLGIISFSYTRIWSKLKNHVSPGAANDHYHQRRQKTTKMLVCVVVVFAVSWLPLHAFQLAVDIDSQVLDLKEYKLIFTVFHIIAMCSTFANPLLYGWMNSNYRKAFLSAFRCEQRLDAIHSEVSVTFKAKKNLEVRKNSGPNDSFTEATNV

Mus musculus [2] = assay: Anorectic activity in C57BL/6J mouse assessed as inhibition of food intake at 30 nmol/kg, sc qd for 3 days relative to control; assay type: functional; details: 72 h
Mus musculus [3] = assay: Antiobesity activity in DIO C57BL/6J mouse assessed as reduction in body weight at 30 nmol/kg, sc qd for 2 weeks; assay type: functional; set-up: scale not given: the % may be the effect or the level left
[4] = Solubility of the compound in water; assay type: physicochemical; details: buffer
Mus musculus [5] = assay: Antiobesity activity in DIO C57BL/6J mouse assessed as reduction in body weight at 10 nmol/kg, sc qd for 2 weeks; assay type: functional; set-up: scale not given: the % may be the effect or the level left
Mus musculus [6] = assay: Antiobesity activity in DIO C57BL/6J mouse assessed as reduction in body weight at 3 nmol/kg, sc qd for 2 weeks; assay type: functional; set-up: scale not given: the % may be the effect or the level left
[7] = Cmax in C57BL/6J mouse at 10 nmol/kg, sc by LC-MS/MS analysis; assay type: ADME, organism-based; set-up: dose 10 nmol/kg, route subcutaneous; details: in vivo
[8] = Tmax in C57BL/6J mouse at 10 nmol/kg, sc by LC-MS/MS analysis; assay type: ADME, organism-based; details: in vivo
[9] = AUC (0 to 48 hrs) in C57BL/6J mouse at 10 nmol/kg, sc by LC-MS/MS analysis; assay type: ADME, organism-based; set-up: dose 10 nmol/kg, time < 48 hr, route subcutaneous; details: in vivo
[10] = Mean residence time in C57BL/6J mouse at 10 nmol/kg, sc by LC-MS/MS analysis; assay type: ADME, organism-based; details: in vivo
Canis familiaris [11] = assay: Emetic effect in Beagle dog at 3 nmol/kg, sc measured up to 4 hrs; assay type: ADME, organism-based, Canis lupus familiaris; details: in vivo
Canis familiaris [12] = assay: Emetic effect in Beagle dog at 3 nmol/kg, sc measured after 4 to 8 hrs; assay type: ADME, organism-based, Canis lupus familiaris; details: in vivo
[13] = Tmax in Beagle dog at 3 nmol/kg, sc; assay type: ADME, organism-based, Canis lupus familiaris; details: in vivo
[14] = Cmax in Beagle dog at 3 nmol/kg, sc; assay type: ADME, organism-based, Canis lupus familiaris; set-up: dose 3 nmol/kg, route subcutaneous; details: in vivo

Structure (SMILES)	pIC50 [1]	inhibition in vivo at 0.03 µmol/kg (Mus musculus [2])	Activity (Mus musculus [3])	solubility [4]	Activity (Mus musculus [5])	also measured
CC[C@](C)(NC(=O)[C@H]1C[C@H](O)CN1C(=O)[C@H](CO)NC(=O)COCC(=O)NCCCOCCOCCOCCCNC(=O)CC[C@H](NC(=O)[C@H]1CC[C@H](CNC(=O)CCCCCCCCCCCCCCCCCCC(=O)O)CC1)C(=O)O)C(=O)N[C@@H](Cc1ccncc1)C(=O)N[C@@H](CC1CCCCC1)C(=O)N[C@@H](CC(C)(C)C)C(=O)N[C@@H](CC(N)=O)C(=O)N[C@@H](CCCCNC(=O)C1CCNCC1)C(=O)NC(C)(C)C(=O)N[C@H](C(=O)N[C@@H](CCCNC(=N)N)C(=O)N[C@@H](CCC(N)=O)C(=O)N[C@@H](CCCNC(=N)N)C(=O)N[C@@H](CC1CCCCC1)C(N)=O)[C@@H](C)O	8.12	52.8%	-22.3%			
CC[C@](C)(NC(=O)[C@H]1C[C@H](O)CN1C(=O)[C@H](CO)NC(=O)COCC(=O)NCCCOCCOCCOCCCNC(=O)CC[C@H](NC(=O)[C@H]1CC[C@H](CNC(=O)CCCCCCCCCCCCCCCCCCC(=O)O)CC1)C(=O)O)C(=O)N[C@@H](Cc1ccncc1)C(=O)N[C@@H](CC1CCCCC1)C(=O)N[C@@H](CC(C)(C)C)C(=O)N[C@@H](CC(N)=O)C(=O)N[C@@H](CCCCN)C(=O)NC(C)(C)C(=O)N[C@H](C(=O)N[C@@H](CCCNC(=N)N)C(=O)N[C@@H](CCC(N)=O)C(=O)N[C@@H](CCCNC(=N)N)C(=O)N[C@@H](CC1CCCCC1)C(N)=O)[C@@H](C)O	7.89	47.8%	-15.1%			
C[C@@H](O)[C@H](NC(=O)C(C)(C)NC(=O)[C@H](CCCCNC(=O)[C@@H](N)CCCCNC(=O)COCC(=O)NCCCOCCOCCOCCCNC(=O)CC[C@H](NC(=O)[C@H]1CC[C@H](CNC(=O)CCCCCCCCCCCCCCCCCCC(=O)O)CC1)C(=O)O)NC(=O)[C@H](CC(N)=O)NC(=O)[C@H](CC(C)(C)C)NC(=O)[C@H](CC1CCCCC1)NC(=O)[C@H](Cc1ccncc1)NC(=O)[C@H](CCCNC(=N)N)NC(=O)[C@H]1C[C@H](O)CN1C(=O)[C@H](CO)NC(=O)c1c[nH]cn1)C(=O)N[C@@H](CCCNC(=N)N)C(=O)N[C@@H](CCC(N)=O)C(=O)N[C@@H](CCCNC(=N)N)C(=O)N[C@@H](CC1CCCCC1)C(N)=O	8.47	58%	-23.1%	Soluble		
C[C@@H](O)[C@H](NC(=O)C(C)(C)NC(=O)[C@H](CCCCNC(=O)[C@@H](N)CCCCNC(=O)COCC(=O)NCCCOCCOCCOCCCNC(=O)CC[C@H](NC(=O)[C@H]1CC[C@H](CNC(=O)CCCCCCCCCCCCCCCCCCC(=O)O)CC1)C(=O)O)NC(=O)[C@H](CC(N)=O)NC(=O)C(C)(C)NC(=O)[C@H](CC1CCCCC1)NC(=O)[C@H](Cc1ccncc1)NC(=O)[C@H](CCCNC(=N)N)NC(=O)[C@H]1C[C@H](O)CN1C(=O)[C@H](CO)NC(=O)c1c[nH]cn1)C(=O)N[C@@H](CCCNC(=N)N)C(=O)N[C@@H](CCC(N)=O)C(=O)N[C@@H](CCCNC(=N)N)C(=O)N[C@@H](CC1CCCCC1)C(N)=O	8.10	61%	-20.7%	Soluble	-16.5%	Activity (Mus musculus [6]): -8%; Cmax [7]: 32 nM; Tmax [8]: 4 h; AUC(0-t) at 48 h [9]: 0.373 µM·h; MRT [10]: 9.3 h; Activity (Canis familiaris [11]): Non-Toxic; Activity (Canis familiaris [12]): Toxic; Tmax [13]: 24 h; Cmax [14]: 10.8 nM
CC[C@](C)(NC(=O)[C@H]1C[C@H](O)CN1C(=O)[C@H](CO)NC(=O)c1c[nH]cn1)C(=O)N[C@@H](Cc1ccncc1)C(=O)N[C@@H](CC1CCCCC1)C(=O)N[C@@H](CC(C)(C)C)C(=O)N[C@@H](CC(N)=O)C(=O)N[C@@H](CCCCNC(=O)[C@@H](N)CCCCNC(=O)COCC(=O)NCCCOCCOCCOCCCNC(=O)CC[C@H](NC(=O)[C@H]1CC[C@H](CNC(=O)CCCCCCCCCCCCCCCCCCC(=O)O)CC1)C(=O)O)C(=O)NC(C)(C)C(=O)N[C@H](C(=O)N[C@@H](CCCNC(=N)N)C(=O)N[C@@H](CCC(N)=O)C(=O)N[C@@H](CCCNC(=N)N)C(=O)N[C@@H](CC1CCCCC1)C(N)=O)[C@@H](C)O	7.89	67%		Insoluble		
CC[C@](C)(NC(=O)[C@H]1C[C@H](O)CN1C(=O)[C@H](CO)NC(=O)c1c[nH]cn1)C(=O)N[C@@H](Cc1ccncc1)C(=O)N[C@@H](CC1CCCCC1)C(=O)N[C@@H](CC(C)(C)C)C(=O)N[C@@H](CC(N)=O)C(=O)N[C@@H](CCCCNC(=O)COCC(=O)NCCCOCCOCCOCCCNC(=O)CC[C@H](NC(=O)[C@H]1CC[C@H](CNC(=O)CCCCCCCCCCCCCCCCCCC(=O)O)CC1)C(=O)O)C(=O)NC(C)(C)C(=O)N[C@H](C(=O)N[C@@H](CCCNC(=N)N)C(=O)N[C@@H](CCC(N)=O)C(=O)N[C@@H](CCCNC(=N)N)C(=O)N[C@@H](CC1CCCCC1)C(N)=O)[C@@H](C)O	7.62	30%				
CCCCCCCCCCCCCCCC(=O)NC[C@H]1CC[C@H](C(=O)N[C@@H](CCC(=O)NCCCOCCOCCOCCCNC(=O)COCC(=O)NCCCC[C@H](N)C(=O)NCCCC[C@H](NC(=O)[C@H](CC(N)=O)NC(=O)C(C)(C)NC(=O)[C@H](CC2CCCCC2)NC(=O)[C@H](Cc2ccncc2)NC(=O)[C@H](CCCNC(=N)N)NC(=O)[C@H]2C[C@H](O)CN2C(=O)[C@H](CO)NC(=O)c2c[nH]cn2)C(=O)NC(C)(C)C(=O)N[C@H](C(=O)N[C@@H](CCCNC(=N)N)C(=O)N[C@@H](CCC(N)=O)C(=O)N[C@@H](CCCNC(=N)N)C(=O)N[C@@H](CC2CCCCC2)C(N)=O)[C@@H](C)O)C(=O)O)CC1	9.72	36%				
CC[C@](C)(NC(=O)[C@H]1C[C@H](O)CN1C(=O)[C@H](CO)NC(=O)COCC(=O)NCCCOCCOCCOCCCNC(=O)CC[C@H](NC(=O)[C@H]1CC[C@H](CNC(=O)CCCCCCCCCCCCCCCCCCC(=O)O)CC1)C(=O)O)C(=O)N[C@@H](Cc1ccncc1)C(=O)N[C@@H](CC1CCCCC1)C(=O)N[C@@H](CC(C)(C)C)C(=O)N[C@@H](CC(N)=O)C(=O)N[C@@H](CCCCNC(C)=O)C(=O)NC(C)(C)C(=O)N[C@H](C(=O)N[C@@H](CCCNC(=N)N)C(=O)N[C@@H](CCC(N)=O)C(=O)N[C@@H](CCCNC(=N)N)C(=O)N[C@@H](CC1CCCCC1)C(N)=O)[C@@H](C)O	8.12	43%	-6.1%			
CCCCCCCCCCCCCCCC(=O)NC[C@H]1CC[C@H](C(=O)N[C@@H](CCC(=O)NCCCOCCOCCOCCCNC(=O)COCC(=O)N[C@@H](CO)C(=O)N2C[C@@H](O)C[C@@H]2C(=O)N[C@@H](CCCNC(=N)N)C(=O)N[C@@H](Cc2ccncc2)C(=O)N[C@@H](CC2CCCCC2)C(=O)NC(C)(C)C(=O)N[C@@H](CC(N)=O)C(=O)N[C@@H](CCCCNC(=O)C2CCNCC2)C(=O)NC(C)(C)C(=O)N[C@H](C(=O)N[C@@H](CCCNC(=N)N)C(=O)N[C@@H](CCC(N)=O)C(=O)N[C@@H](CCCNC(=N)N)C(=O)N[C@@H](CC2CCCCC2)C(N)=O)[C@@H](C)O)C(=O)O)CC1	9.72	68.3%			-19%	Activity (Mus musculus [6]): -18.4%; Cmax [7]: 3.6 nM; Tmax [8]: 1 h; AUC(0-t) at 48 h [9]: 0.0122 µM·h; MRT [10]: 1.7 h; Tmax [13]: 2.5 h; Cmax [14]: 0.9 nM
C[C@@H](O)[C@H](NC(=O)C(C)(C)NC(=O)[C@H](CCCCNC(=O)C1CCNCC1)NC(=O)[C@H](CC(N)=O)NC(=O)C(C)(C)NC(=O)[C@H](CC1CCCCC1)NC(=O)[C@H](Cc1ccncc1)NC(=O)[C@H](CCCNC(=N)N)NC(=O)[C@H]1C[C@H](O)CN1C(=O)[C@H](CO)NC(=O)COCC(=O)NCCCOCCOCCOCCCNC(=O)CC[C@H](NC(=O)[C@H]1CC[C@H](CNC(=O)CCCCCCCCCCCCCCCCCCC(=O)O)CC1)C(=O)O)C(=O)N[C@@H](CCCNC(=N)N)C(=O)N[C@@H](CCC(N)=O)C(=O)N[C@@H](CCCNC(=N)N)C(=O)N[C@@H](CC1CCCCC1)C(N)=O	8.35	67.3%	-17.2%		-11.6%	
